Test results published in US20250368623A1, “PYRIDAZINONE-DERIVED COMPOUNDS FOR THE MODULATION OF MYC AND FOR MEDICAL USES” (GENETIC INTELLIGENCE, INC, priority 2022, published 2025).

Legend:
Type in all cases: cell-based
HepG2 [1] = experiment: CCK-8 cell viability assay, HepG2; conditions: Homo sapiens; CCK-8, HepG2, 2-day or 3-day incubation, cytotoxic effect
Procedure: The effect of test compounds on cell viability is determined using the CCK-8 assay kit (Dojindo CK04-1000) according to the following protocol. The human cancer cell lines (e.g., A549, HepG2, JeKo-1, MDA-MB-231, etc.) and non-cancer human cell lines (e.g., HEK-293, HaCaT, etc.), are seeded at 20,000 cells per well in a 96-well plate. After 1 day, the cells are treated with test compounds at various final concentrations (e.g., 10 nM, 31.6 nM, 100 nM, 316 nM, 1 μM, 3.16 μM, 10 μM, 20 μM, etc.). After a 2-day or 3-day incubation period, 10 μL of CCK-8 solution, which contains the WST-8 dye, is added to each well according to the kit manufacturer's protocol. After incubation for 1-4 hours, the absorbance at 450 nm is measured using a microplate reader. The absorbance at 450 nm measures the amount of WST-8 that is reduced to WST-8 formazan by cellular dehydrogenases, which is directly proportional to the number of living cells. The cytotoxic effect of test compounds at different concentrations is calculated by subtracting from 1 the ratio of absorbance of the compound-treated sample at 450 nm to that of the no-compound, solvent only (DMSO)-treated sample. […] The IC50 values for the cytotoxic effect of each test compound in A549, HepG2, JeKo-1, and/or MDA-MB-231 cells are determined by plotting a dose-response curve to calculate the concentration of test compound that produces half of the maximum cytotoxic effect.

HepG2 [2] = experiment: CellTiter-Glo 2.0 cell viability assay, HepG2; conditions: Homo sapiens, 48 h; CellTiter-Glo 2.0, HepG2, 2-day incubation
Procedure: The effect of test compounds on cell viability is also determined using the CellTiter-Glo 2.0 assay kit (Promega G9241) according to the following protocol. The human cancer cell line (e.g., HepG2) and a non-cancer human cell line (e.g., HEK-293), are seeded at 20,000 cells per well in a 96-well plate. After 1 day, the cells are treated with test compounds at various concentrations (e.g., 10 nM, 31.6 nM, 100 nM, 316 nM, 1 μM, 3.16 μM, 10 μM, 20 μM, etc.). After a 2-day incubation period, the CellTiter-Glo 2.0 assay is performed according to the kit manufacturer's protocol. […] The contents are mixed for 2 minutes on an orbital shaker to induce cell lysis, and incubated for 10 minutes at room temperature, following which the luminescent signal is measured using a microplate reader. […] The cytotoxic effect of test compounds at different concentrations is calculated by subtracting from 1 the ratio of the luminescence signal of the compound-treated sample to that of the no-compound, solvent only (DMSO)-treated sample. […] The IC50 values for the cytotoxic effect of each test compound in HepG2 cells are determined by plotting a dose-response curve to calculate the concentration of test compound that produces half of the maximum cytotoxic effect. […]

JeKo-1 = experiment: CCK-8 cell viability assay, JeKo-1; conditions: Homo sapiens; CCK-8, JeKo-1, 2-day or 3-day incubation, cytotoxic effect
Procedure: (§1) The effect of test compounds on cell viability is determined using the CCK-8 assay kit (Dojindo CK04-1000) according to the following protocol. The human cancer cell lines (e.g., A549, HepG2, JeKo-1, MDA-MB-231, etc.) and non-cancer human cell lines (e.g., HEK-293, HaCaT, etc.), are seeded at 20,000 cells per well in a 96-well plate. After 1 day, the cells are treated with test compounds at various final concentrations (e.g., 10 nM, 31.6 nM, 100 nM, 316 nM, 1 μM, 3.16 μM, 10 μM, 20 μM, etc.). After a 2-day or 3-day incubation period, 10 μL of CCK-8 solution, which contains the WST-8 dye, is added to each well according to the kit manufacturer's protocol. After incubation for 1-4 hours, the absorbance at 450 nm is measured using a microplate reader. The absorbance at 450 nm measures the amount of WST-8 that is reduced to WST-8 formazan by cellular dehydrogenases, which is directly proportional to the number of living cells. The cytotoxic effect of test compounds at different concentrations is calculated by subtracting from 1 the ratio of absorbance of the compound-treated sample at 450 nm to that of the no-compound, solvent only (DMSO)-treated sample. A higher number indicates a greater cytotoxic effect of the test compound on cells (corresponding to a greater reduction in cellular dehydrogenase activity), and vice versa. The IC50 values for the cytotoxic effect of each test compound in A549, HepG2, JeKo-1, and/or MDA-MB-231 cells are determined by plotting a dose-response curve to calculate the concentration of test compound that produces half of the maximum cytotoxic effect. The cytotoxic effect and IC50 of test compounds are also measured in a non-cancer human cell line (e.g., HEK-293, and/or HaCaT) as a proxy for healthy cells to determine the therapeutic window of the test compounds (i.e., the concentration range at which the test compounds selectively kill cancer cells but not healthy cells). The therapeutic index of a test compound is defined herein as its IC50 in HEK-293 cells divided by its IC50 in HepG2 cells.

MDA-MB-231 = experiment: CCK-8 cell viability assay, MDA-MB-231; conditions: Homo sapiens; CCK-8, MDA-MB-231, 2-day or 3-day incubation, cytotoxic effect
Procedure: as §1

HEK-293 = experiment: ApoTox-Glo Triplex assay (live-dead ratio), HEK-293; conditions: Homo sapiens, HEK293, 48 h, HEK-293, 2-day incubation
Procedure: (§2) The effects of test compounds on cell viability and apoptosis are determined using the ApoTox-Glo Triplex assay kit (Promega G6320) according to the following protocol. The human cancer cell line (e.g., HepG2) and a non-cancer human cell line (e.g., HEK-293), are seeded at 20,000 cells per well in a 96-well plate. After 1 day, the cells are treated with test compounds at various final concentrations (e.g., 10 nM, 31.6 nM, 100 nM, 316 nM, 1 μM, 3.16 μM, 10 μM, 20 μM, etc.). After a 2-day incubation period, the ApoTox-Glo Triplex assay is performed according to the kit manufacturer's protocol. […] After incubation for 30 minutes at 37° C., the fluorescence signal is measured at two wavelength sets (400Ex/505Em) and (485Ex/520Em) to assess live-cell protease activity and dead-cell protease activity respectively. […] After incubation for 30 minutes at room temperature, the luminescent signal is measured using a microplate reader. […]
(§3) The cytotoxic effect of test compounds according to the ApoTox-Glo Triplex assay is calculated as follows. The live-dead ratio is calculated by dividing the fluorescence signal for live-cell protease activity with the fluorescence signal for dead-cell protease activity. […]

HepG2 [3] = experiment: ApoTox-Glo Triplex assay (live-dead ratio), HepG2; conditions: Homo sapiens, 48 h, HepG2, 2-day incubation
Procedure: as §2, §3

SMILES: Cc1nc(C)c(-c2ccc(=O)n(CC3CCN(c4ncnc5ncccc45)CC3)n2)s1 [6-(2,4-dimethylthiazol-5-yl)-2-((1-(pyrido[2,3-d]pyrimidin-4-yl)piperidin-4-yl)methyl)pyridazin-3(2H)-one]
- IC50 (HepG2 [1]): 300 nM
- IC50 (HepG2 [2]): 100 nM
- IC50 (JeKo-1): 400 nM
- IC50 (MDA-MB-231): 800 nM
- IC50 (HEK-293): 35900 nM
- IC50 (HepG2 [3]): 100 nM
